Assays:
[1] = biological target: T1, β1→3N-acetylglucosaminyltransferase (Homo sapiens, UniProt Q9BYG0); experiment: β1→3N-acetylglucosaminyltransferase assay with Triton X-100 solubilized enzyme from SW403 cells; type: biochemical; conditions: for effect of removal from the reaction mixture on activity (in words): component removed from complete system; for β1-3N-acetylglucosaminyltransferase activity, named component omitted from complete system: component removed; for Effect of detergents on β1-3N-acetylglucosaminyltransferase activity: detergent added at 0.3% final concentration, 0.05% Triton X-100 present from enzyme, acceptor lactosylceramide; for fold less activity on substitution of Mn++: 10 mM final concentration, compared to Mn++; for β1-3N-acetylglucosaminyltransferase activity, Mn++ replaced by the named agent: plus agent at 10 mM final
T1 construct: solubilized from a 27,000 x g membrane pellet of SW403 cells by 0.2% Triton X-100; endogenous in cells; host or cells: SW403 cells (human colonic adenocarcinoma), 0.2% Triton X-100 soluble membrane fraction
T1 sequence (Q9BYG0 1-378): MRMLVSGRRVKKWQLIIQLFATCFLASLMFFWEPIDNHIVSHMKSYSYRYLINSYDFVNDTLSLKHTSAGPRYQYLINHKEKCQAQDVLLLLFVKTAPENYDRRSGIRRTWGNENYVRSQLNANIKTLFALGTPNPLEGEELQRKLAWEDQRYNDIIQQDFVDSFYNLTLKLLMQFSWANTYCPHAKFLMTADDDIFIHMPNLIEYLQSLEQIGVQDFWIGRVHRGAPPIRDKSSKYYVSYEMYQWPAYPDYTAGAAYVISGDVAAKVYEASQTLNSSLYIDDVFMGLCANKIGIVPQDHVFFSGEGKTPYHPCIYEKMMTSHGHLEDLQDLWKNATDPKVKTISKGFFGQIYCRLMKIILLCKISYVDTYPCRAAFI
Protocol: (§1) The labelled product was extracted into the lower phase of a Folch extraction (J. Biol. Chem., 191, 819-831), dried by an N2 stream, and dissolved in 20 μl of CHCl3 :CH3 OH (2:1). An aliquot, 10 μl was spotted on a HPTLC plate (Merck) and developed in a solvent composed of CHCl3 :CH3 OH:H2 O (60:35:8). The labelled glycolipids were located by autoradiography, scraped, and quantitated in a liquid scintillation counter.

[2] = tested on: β1→3N-acetylglucosaminyltransferase; experiment: as above; type: biochemical, human; conditions: for Substrate specificity of β1-3N-acetylglucosaminyltransferase: transfer of GlcNAc to acceptor: 40 ug of each acceptor, ND = none detected
Protocol: as §1

[3] = biological target: T2, β1-3galactosyltransferase (Homo sapiens, UniProt Q9Y2C3); experiment: Effect of α-lactalbumin on β1-3galactosyltransferase of a 0.2% Triton X-100 soluble fraction from SW403 cells; type: biochemical; conditions: 30 μg acceptor, 0.2 mg solubilized protein
T2 construct: catalyzed by a 0.2% Triton X-100 soluble fraction from SW403 cells; endogenous in cells; host or cells: SW403 cells (human colonic adenocarcinoma), 0.2% Triton X-100 soluble fraction
T2 sequence (Q9Y2C3 1-310): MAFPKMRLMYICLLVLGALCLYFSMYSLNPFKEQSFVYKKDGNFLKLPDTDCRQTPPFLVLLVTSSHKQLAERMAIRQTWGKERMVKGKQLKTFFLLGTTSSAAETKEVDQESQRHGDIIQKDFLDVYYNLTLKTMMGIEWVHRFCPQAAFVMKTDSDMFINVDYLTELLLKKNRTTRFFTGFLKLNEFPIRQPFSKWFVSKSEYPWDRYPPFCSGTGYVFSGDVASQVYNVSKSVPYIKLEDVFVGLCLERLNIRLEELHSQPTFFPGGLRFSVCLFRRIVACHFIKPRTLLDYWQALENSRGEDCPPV
Protocol: The effect of increasing α-lactalbumin on the transfer of galactose to glucosylceramide, +--+, Lc3 forming nLc4, o--o, and Lc3 forming Lc4, x--x, catalyzed by a 0.2% Triton X-100 soluble fraction from SW403 cells is shown. The assays were conducted in the presence of 30 μg of the indicated acceptor and 0.2 mg of solubilized protein.
Synthesis of type 1 and 2 chain structures Lc4 and nLc4 are catalyzed by β1-3 and β1-4galactosyltransferases, respectively, competing for Lc3. A β1-4-galactosyltransferase responsible for transfer of Gal to Lc3 in human plasma was previously reported to be lactose synthetase A protein which was also involved in the synthesis of lactosylceramide (J. Biochem., 92, 1123-1127 (1982)). The effect of increasing α-lactalbumin on the β1-4galactosyltransferase activity in SW403 cells is seen with glucosylceramide and Lc3 as acceptors.
The reaction mixtures contained 2.5 μmol HEPES buffer, pH 7.0, 20 μg Lc3, 10 μg deoxycholate, 1 μmol MnCI2, 0.5 μmol CDPcholine, 0.5 μmol galactonolactone, 15 nmol UDP[^14 C]galactose (30,000 cpm/nmol), and 0.1 mg protein in a total volume of 0.1 ml. […] The incorporation of [^14 C]galactose into glycolipid was determined as described above.

C[N+](C)(C)CCOP(=O)(O)OP(=O)([O-])OC[C@H]1O[C@@H](n2ccc(N)nc2=O)[C@H](O)[C@@H]1O [CDPcholine]
effect of removal from the reaction mixture on activity (in words) [1]: significant loss of activity | β1-3N-acetylglucosaminyltransferase activity, named component omitted from complete system ([1]; complete system gives 76.0): 65.3 pmol/hr/mg protein

C[C@H](CCC(=O)NCCC[N+](C)(C)CC(O)CS(=O)(=O)[O-])[C@H]1CC[C@H]2[C@@H]3[C@H](O)C[C@@H]4C[C@H](O)CC[C@]4(C)[C@H]3C[C@H](O)[C@]12C (some centres unmarked) [CHAPSO]
Effect of detergents on β1-3N-acetylglucosaminyltransferase activity [1]: 54.5 pmol/hr/mg protein

[Ca+2] [Ca^++]
fold less activity on substitution of Mn++ [1]: 13 fold | β1-3N-acetylglucosaminyltransferase activity, Mn++ replaced by the named agent ([1]; complete system gives 76.0): 6.0 pmol/hr/mg protein

C[C@H](CCC(=O)O)[C@H]1CC[C@H]2[C@@H]3CC[C@@H]4C[C@H](O)CC[C@]4(C)[C@H]3C[C@H](O)[C@]12C [Deoxycholate]
Effect of detergents on β1-3N-acetylglucosaminyltransferase activity [1]: 67.5 pmol/hr/mg protein

CC(=O)N[C@H]1C(O)O[C@H](CO)[C@@H](O)[C@@H]1O (some centres unmarked) [GlcNAc]
β1-3N-acetylglucosaminyltransferase activity, GlcNAc added to complete system ([1]; GlcNAc 10 mM final, complete system gives 76.0): 80.3 pmol/hr/mg protein | effect on transfer of GlcNAc to lactosylceramide (in words) ([1]; agent at 10 mM final concentration (EDTA in place of Mn++; GlcNAc added)): only slight stimulation of the activity

[Mg+2] [Mg^++]
fold less activity on substitution of Mn++ [1]: 21 fold | β1-3N-acetylglucosaminyltransferase activity, Mn++ replaced by the named agent ([1]; complete system gives 76.0): 3.6 pmol/hr/mg protein

Lactotetraosylceramide [Lc4]
Substrate specificity of β1-3N-acetylglucosaminyltransferase: transfer of GlcNAc to acceptor [2]: 27 pmol/hr/mg protein | transfer of GlcNAc to acceptor (in words) ([2]; SW403 cell enzyme, lacto-series glycolipid acceptors): detectable but is much lower

Triton X-100
Effect of detergents on β1-3N-acetylglucosaminyltransferase activity [1]: 67.9 pmol/hr/mg protein

lactosylceramide
Substrate specificity of β1-3N-acetylglucosaminyltransferase: transfer of GlcNAc to acceptor [2]: 76 pmol/hr/mg protein | effect of removal from the reaction mixture on activity (in words) [1]: greatly diminished the activity | β1-3N-acetylglucosaminyltransferase activity, named component omitted from complete system ([1]; complete system gives 76.0): 8.3 pmol/hr/mg protein

B1: α-lactalbumin: protein modifier of lactose synthetase A protein (β1-4galactosyltransferase) (protein, UniProt P00709 20-142, looked up)
Alpha-lactalbumin: KQFTKCELSQLLKDIDGYGGIALPELICTMFHTSGYDTQAIVENNESTEYGLFQISNKLWCKSSQVPQSRNICDISCDKFLDDDITDDIMCAKKILDIKGIDYWLAHKALCTEKLEQWLCEKL
effect of α-lactalbumin on β1-3galactosyltransferase with Lc3 as acceptor (forming Lc4) [3]: Slight activation

Reference: patent US5403717A, “Diagnosis of premalignant or malignant conditions of human secretory epithelia” (Pacific Northwest Research, priority 1992, dated 1995)
